{
  "source": "patent US20160103138A1",
  "about": "“METHODS FOR ANALYZING ELASTIC FIBER INJURY MARKERS AND DIAGNOSIS OF DISEASES ASSOCIATED WITH ELASTIC FIBER INJURY” (priority 2013, published 2016)",
  "key": {"[1]": {"tested_on": "urinary desmosine", "details": "cited from earlier work"}, "[2]": {"tested_on": "desmosine and isodesmosine (DI) in plasma (elastin degradation)", "assay": "Effect of alpha-1 antitrypsin augmentation therapy on DI levels in plasma of AATD patients", "format": "in vivo, human", "details": "for change in DI in plasma from baseline: 11 patients, intravenous replacement", "source_text": "(§1) There were 4 sources of body fluid samples analyzed: 1) plasma samples from 47 patients receiving alpha-1 antitrypsin protein from human blood sources, commercially available, compared with 50 AATD patients not on AAT augmentation and 50 normal subjects; 2) 11 patients with homozygous severe AATD who provided plasma samples before the start of IV therapy and then 12 and 24 weeks later; 3) 10 patients with homozygous AATD receiving IV replacement provided BALF at 12 weeks (the dose administered was 60 mg/kg body weight each week in the above patient groups); and 4) patients received a recombinantly produced AAT which was administered as an aerosol for 8 weeks. (Spencer et al., 2005) (the administered dose was 250 mg of aerosolized transgenic AAT each day). Eight patients provided BALF, 12 patients provided plasma samples, and 5 patients provided urine samples at baseline and after 8 weeks of aerosol therapy.\n(§2) The following 3 methods were used to define the alpha-1 genomes: 1) genotype by allelic discrimination using TaqMan (S&Z alleles), ABI 7500 Fast Real-time PCR System; 2) AAT Level by Immunogenic assay, Dade Behring Nephelometer BN II and 3) phenotyping by isoelectric focusing, Pharmacia Biotech Multiphore II. The method of analysis for desmosine and isodesmosine (DI) in plasma, BALF and urine is as described. (Ma et al., 2011) The content of DI in BALF was calculated as the concentration of DI per ml of BALF using urea as a marker of dilution. (Rennard et al., 1986).\n(§3) High performance liquid chromatography and tandem mass spectrometry as described (Ma et al., 2011) were used.\n(§4) The T-test was used to compare the effects of augmentation therapy on the large patient cohorts. The paired T-test was used to compare the changes before and after therapy in individuals. The linear regression was used to determine the relationships of age to levels of DI."}, "[3]": {"tested_on": "desmosine and isodesmosine (DI) in epithelial lining fluid obtained by BALF (elastin degradation)", "assay": "Effect of alpha-1 antitrypsin augmentation therapy on DI levels in BALF of AATD patients", "format": "in vivo, human", "source_text": "as §1\nas §2, with “The method of analysis for desmosine and isodesmosine (DI) in plasma, BALF and urine is as described.” left out, “(Rennard et al., 1986).” left out"}, "[4]": {"tested_on": "urinary desmosine and isodesmosine (DI)", "assay": "Effect of aerosol alpha-1 antitrypsin augmentation therapy on urinary DI (free and total)", "format": "in vivo, human", "details": "before vs after aerosol augmentation therapy", "source_text": "as §1, §2, §3, §4"}, "[5]": {"assay": "Stability of DES-d4 (IS) in 6N HCl at 110° C., recovery by LC-MS/MS", "format": "physicochemical", "details": "heated at 110° C. for 24, 48, and 72 hours"}, "[6]": {"tested_on": "leukotriene B-5, interleukin-8 and neutrophil elastase in sputum", "details": "after weeks of supplementation therapy with I.V. AAT (Stockley et al., 2002); cited from earlier work"}, "[7]": {"details": "6N HCl (Ma, S. et al., 2011); cited from earlier work"}},
  "data": [
    {"compound": "Prolastin: AAT supplementation product (Bayer Company)", "values": [
      {"measurement": "urinary desmosine excretion during supplementation vs run in", "setting": "[1]; 12 AATD subjects, weekly 60 mg/kg for 4 weeks (Gottlieb et al., 2000)", "result": "unchanged"}
    ]},
    {"compound": "aerosolized transgenic AAT: recombinantly produced AAT which was administered as an aerosol for 8 weeks", "values": [
      {"measurement": "mean decrease of DI in plasma", "setting": "[2]; 12 patients, before vs after 8 weeks aerosol augmentation therapy (250 mg each day), not statistically significant (p=0.1675)", "result": 6.5, "unit": "%"},
      {"measurement": "mean increase in DI in plasma", "setting": "[2]; the 3 of 12 patients with increase, aerosol augmentation therapy, not statistically significant", "result": 4.3, "unit": "%"},
      {"measurement": "average decrease of DI in plasma", "setting": "[2]; the 9 of 12 patients with reduction, aerosol augmentation therapy, p=0.0142", "result": 12.1, "unit": "%"},
      {"measurement": "mean reduction of DI levels in BALF", "setting": "[3]; 8 patients, AAT by aerosol administration, 8 weeks, p=0.0078", "result": "−58.5", "unit": "%"},
      {"measurement": "reduction in the free component of DI excretion in urine", "setting": "[4]; 4 of the 5 subjects", "result": "0.1-13.0%"},
      {"measurement": "average reduction of percent of free DI over total DI excretion in urine", "setting": "[4]; 5 subjects, p=0.0625", "result": 21.6, "unit": "%"},
      {"measurement": "increase in excretion of free DI in urine", "setting": "[4]; one of the 5 subjects", "result": 75.3, "unit": "%"}
    ]},
    {"compound": "[2H]C([2H])(C[C@H](N)C(=O)O)C([2H])([2H])c1c(CC[C@H](N)C(=O)O)c[n+](CCCC[C@H](N)C(=O)O)cc1CC[C@H](N)C(=O)O", "note": "[DES-d4]", "values": [
      {"measurement": "stability of DES-d4 under acid hydrolysis (in words)", "setting": "[5]", "result": "stable with nearly complete recovery"}
    ]},
    {"compound": "AAT: alpha-1 antitrypsin protein from human blood sources, commercially available, given intravenously as augmentation therapy", "values": [
      {"measurement": "change in DI in plasma from baseline", "setting": "[2]; 12 weeks of therapy", "result": "−13.9", "unit": "%"},
      {"measurement": "change in DI in plasma from baseline", "setting": "[2]; 24 weeks of therapy", "result": "−20.3", "unit": "%"},
      {"measurement": "mean level of DI in plasma", "setting": "[2]; AATD patients receiving augmentation therapy (IV, 60 mg/kg each week), n=50, no augmentation 0.36, normal 0.22", "result": 0.25, "unit": "ng/mL"},
      {"measurement": "plasma levels of DI, mean±SD", "setting": "[2]; FIG. 7, augmentation group, n=50, no augmentation 0.36±0.01, normal 0.22±0.04", "result": "0.25±0.01"},
      {"measurement": "overall average change of DI in BALF", "setting": "[3]; 10 patients, before vs 12 weeks after IV augmentation therapy, p=0.0273", "result": "−37", "unit": "%"},
      {"measurement": "drop of mean post-treatment urinary desmosine from pre-treatment levels", "setting": "[1]; two AATD patients, monthly infusions of 260 mg/kg, followed 18 months (Stone et al., 1995)", "result": "exceeded 35%"},
      {"measurement": "levels of leukotriene B-5, interleukin-8 and neutrophil elastase in sputum", "setting": "[6]", "result": "reduced levels"}
    ]},
    {"compound": "N[C@@H](CCCc1c(CC[C@H](N)C(=O)O)c[n+](CCCC[C@H](N)C(=O)O)cc1CC[C@H](N)C(=O)O)C(=O)[O-]", "note": "[DES, Desmosine]", "values": [
      {"measurement": "stability during acid hydrolysis (in words)", "setting": "[7]", "result": "stable"}
    ]},
    {"compound": "NC(CCCC[n+]1cc(CCC(N)C(=O)O)cc(CCC(N)C(=O)O)c1CCCC(N)C(=O)O)C(=O)O", "note": "(stereo not drawn) [IDS, isodesmosine]", "values": [
      {"measurement": "stability during acid hydrolysis (in words)", "setting": "[7]", "result": "stable"}
    ]}
  ]
}
